Measurements as given in ChEMBL document CHEMBL5465560, “Selectivity Literature for EUbOPEN Chemogenomic Library” (2024).

Tests used:
[1] = molecular target: Calcium/calmodulin-dependent protein kinase type II subunit alpha (Homo sapiens, UniProt Q9UQM7); test: Selectivity interaction (KinomeScan (DiscoverX)) EUB0001049a CAMK2A; conditions: at 1 µM
[2] = molecular target: T1, Serine/threonine-protein kinase ICK (Homo sapiens) (UniProt Q9UPZ9); test: Selectivity interaction (KinomeScan (DiscoverX)) EUB0000229b ICK; conditions: at 10 µM
T1 sequence (whole entry): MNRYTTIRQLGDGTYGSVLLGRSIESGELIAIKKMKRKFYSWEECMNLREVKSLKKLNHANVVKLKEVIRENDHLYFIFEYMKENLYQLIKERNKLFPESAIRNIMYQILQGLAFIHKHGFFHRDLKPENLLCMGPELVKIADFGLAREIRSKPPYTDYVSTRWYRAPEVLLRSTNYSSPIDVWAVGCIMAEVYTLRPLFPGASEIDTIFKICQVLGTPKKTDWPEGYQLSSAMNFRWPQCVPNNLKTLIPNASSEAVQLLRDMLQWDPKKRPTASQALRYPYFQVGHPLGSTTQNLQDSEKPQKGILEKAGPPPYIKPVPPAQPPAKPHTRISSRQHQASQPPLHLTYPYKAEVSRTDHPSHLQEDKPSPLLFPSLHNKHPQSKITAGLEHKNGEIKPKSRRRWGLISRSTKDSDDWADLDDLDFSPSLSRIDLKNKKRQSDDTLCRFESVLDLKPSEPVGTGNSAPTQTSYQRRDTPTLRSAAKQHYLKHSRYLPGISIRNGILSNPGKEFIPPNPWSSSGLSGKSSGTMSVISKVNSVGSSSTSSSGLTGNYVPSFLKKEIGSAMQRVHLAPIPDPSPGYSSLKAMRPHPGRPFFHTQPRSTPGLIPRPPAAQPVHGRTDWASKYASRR

[3] = molecular target: MAP kinase-interacting serine/threonine-protein kinase 1 (Homo sapiens) (UniProt Q9BUB5); test: Selectivity interaction (KinomeScan (DiscoverX)) EUB0001079a MKNK1; conditions: at 1 µM
[4] = molecular target: Serine/threonine-protein kinase SBK1 (Homo sapiens) (UniProt Q52WX2); test: Selectivity interaction (KinomeScan (DiscoverX)) EUB0001079a SBK1; conditions: at 1 µM
[5] = molecular target: Serine/threonine-protein kinase PAK 4 (Homo sapiens, UniProt O96013); test: Selectivity interaction (Kinase panel (DSF assay)) EUB0001558a PAK4
[6] = molecular target: Tyrosine-protein kinase receptor Tie-1 (Homo sapiens) (UniProt P35590); test: Selectivity interaction (KinomeScan (DiscoverX)) EUB0000699a TIE1; conditions: at 10 µM
[7] = molecular target: Histone acetyltransferase p300 (Homo sapiens) (UniProt Q09472); test: Selectivity interaction (Transferase panel (protein, RNA, and DNA methyltransferases. and EP300 (acetyltransferase))) EUB0000270b EP300
Sequence of Histone acetyltransferase p300 (Homo sapiens) (Q09472 whole entry): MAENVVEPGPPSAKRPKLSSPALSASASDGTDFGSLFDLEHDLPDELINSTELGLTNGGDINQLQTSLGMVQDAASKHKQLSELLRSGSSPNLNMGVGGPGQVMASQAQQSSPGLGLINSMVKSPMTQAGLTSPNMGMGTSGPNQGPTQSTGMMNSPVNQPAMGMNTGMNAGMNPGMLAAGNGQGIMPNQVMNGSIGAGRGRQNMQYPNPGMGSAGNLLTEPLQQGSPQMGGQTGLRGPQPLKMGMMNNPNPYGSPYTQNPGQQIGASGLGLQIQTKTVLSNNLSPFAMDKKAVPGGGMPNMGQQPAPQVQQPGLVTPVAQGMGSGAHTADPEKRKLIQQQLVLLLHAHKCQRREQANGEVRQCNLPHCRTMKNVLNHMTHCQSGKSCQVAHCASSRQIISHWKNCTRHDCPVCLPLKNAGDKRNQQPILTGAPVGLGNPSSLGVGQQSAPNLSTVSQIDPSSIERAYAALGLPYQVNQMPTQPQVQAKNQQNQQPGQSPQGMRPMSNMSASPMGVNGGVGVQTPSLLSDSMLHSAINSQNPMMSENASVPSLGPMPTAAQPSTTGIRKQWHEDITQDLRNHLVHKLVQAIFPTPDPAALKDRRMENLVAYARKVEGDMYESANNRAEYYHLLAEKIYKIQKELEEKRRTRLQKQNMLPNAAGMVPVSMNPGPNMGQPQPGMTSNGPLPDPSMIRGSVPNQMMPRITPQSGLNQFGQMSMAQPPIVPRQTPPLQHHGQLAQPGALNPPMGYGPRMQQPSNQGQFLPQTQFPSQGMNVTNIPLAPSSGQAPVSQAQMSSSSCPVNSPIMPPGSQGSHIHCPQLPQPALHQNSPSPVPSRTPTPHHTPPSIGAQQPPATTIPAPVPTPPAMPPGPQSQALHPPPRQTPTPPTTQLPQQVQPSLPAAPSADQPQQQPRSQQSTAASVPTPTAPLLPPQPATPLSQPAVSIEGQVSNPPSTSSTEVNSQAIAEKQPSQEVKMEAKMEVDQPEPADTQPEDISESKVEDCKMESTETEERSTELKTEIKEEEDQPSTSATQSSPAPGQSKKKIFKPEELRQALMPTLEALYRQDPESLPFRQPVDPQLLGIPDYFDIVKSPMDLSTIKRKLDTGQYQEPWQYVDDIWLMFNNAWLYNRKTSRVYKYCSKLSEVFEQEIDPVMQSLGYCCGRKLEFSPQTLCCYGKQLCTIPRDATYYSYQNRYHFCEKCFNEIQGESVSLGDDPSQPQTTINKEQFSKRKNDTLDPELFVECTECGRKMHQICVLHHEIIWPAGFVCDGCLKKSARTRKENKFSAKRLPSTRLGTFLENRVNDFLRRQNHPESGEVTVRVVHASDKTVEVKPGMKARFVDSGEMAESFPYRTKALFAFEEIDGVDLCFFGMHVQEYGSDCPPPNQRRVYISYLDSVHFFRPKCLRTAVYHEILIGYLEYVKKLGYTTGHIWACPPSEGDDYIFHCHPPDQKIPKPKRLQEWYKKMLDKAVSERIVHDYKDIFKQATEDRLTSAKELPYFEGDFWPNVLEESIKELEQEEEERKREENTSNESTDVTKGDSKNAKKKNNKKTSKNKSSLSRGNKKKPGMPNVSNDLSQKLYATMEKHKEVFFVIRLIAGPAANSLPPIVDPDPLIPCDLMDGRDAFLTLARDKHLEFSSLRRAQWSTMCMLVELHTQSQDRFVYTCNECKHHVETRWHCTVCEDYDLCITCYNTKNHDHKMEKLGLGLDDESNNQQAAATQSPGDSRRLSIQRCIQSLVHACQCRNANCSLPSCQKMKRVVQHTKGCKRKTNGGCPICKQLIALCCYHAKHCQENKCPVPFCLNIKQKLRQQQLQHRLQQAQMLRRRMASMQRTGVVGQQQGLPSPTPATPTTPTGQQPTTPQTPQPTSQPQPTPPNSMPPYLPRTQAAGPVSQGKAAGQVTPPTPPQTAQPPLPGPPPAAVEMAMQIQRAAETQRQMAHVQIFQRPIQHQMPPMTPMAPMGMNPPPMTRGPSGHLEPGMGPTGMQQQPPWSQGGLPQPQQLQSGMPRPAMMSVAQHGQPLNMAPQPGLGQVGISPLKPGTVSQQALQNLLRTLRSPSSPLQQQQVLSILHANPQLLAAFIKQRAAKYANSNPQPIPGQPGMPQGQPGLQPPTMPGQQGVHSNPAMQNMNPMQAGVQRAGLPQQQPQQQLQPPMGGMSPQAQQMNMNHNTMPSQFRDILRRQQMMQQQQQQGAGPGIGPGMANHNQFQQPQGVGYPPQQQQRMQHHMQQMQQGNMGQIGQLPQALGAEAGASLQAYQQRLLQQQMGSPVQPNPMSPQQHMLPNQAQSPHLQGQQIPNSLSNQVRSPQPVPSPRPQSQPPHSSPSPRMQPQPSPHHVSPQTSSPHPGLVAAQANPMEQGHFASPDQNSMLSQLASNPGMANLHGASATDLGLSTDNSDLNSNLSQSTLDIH

[8] = molecular target: T2, Scaffold protein ILK (Homo sapiens) (UniProt Q13418); test: Selectivity interaction (ActivX KiNativ screen (kinase selectivity in THP-1 cell lysates)) EUB0000639a ILK; format: subcellular; conditions: lysate, at 1 µM
T2 sequence (whole entry): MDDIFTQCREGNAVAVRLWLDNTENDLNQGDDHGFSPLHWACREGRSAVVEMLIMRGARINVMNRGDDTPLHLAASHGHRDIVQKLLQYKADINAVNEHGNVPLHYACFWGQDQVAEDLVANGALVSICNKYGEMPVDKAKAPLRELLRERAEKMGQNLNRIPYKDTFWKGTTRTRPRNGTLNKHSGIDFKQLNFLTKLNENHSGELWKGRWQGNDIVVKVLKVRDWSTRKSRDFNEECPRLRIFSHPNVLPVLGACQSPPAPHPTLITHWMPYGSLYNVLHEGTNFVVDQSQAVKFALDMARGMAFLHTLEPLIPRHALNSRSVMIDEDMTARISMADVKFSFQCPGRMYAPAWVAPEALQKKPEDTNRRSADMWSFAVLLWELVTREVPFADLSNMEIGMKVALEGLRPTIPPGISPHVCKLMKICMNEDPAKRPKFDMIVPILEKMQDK

[9] = molecular target: Glycogen synthase kinase-3 beta (Homo sapiens, UniProt P49841); test: Selectivity interaction (Ambit KINOMEscan and KiNATiv profiling in Jurkat cells) EUB0000090b GSK3B; format: cell-based; conditions: at 1 µM
[10] = molecular target: T3, Serine/threonine-protein kinase Nek3 (Homo sapiens) (UniProt P51956); test: Selectivity interaction (Ambit KINOMEscan and KiNATiv profiling in Jurkat cells) EUB0000090b NEK3; format: cell-based; conditions: at 1 µM
T3 sequence (whole entry): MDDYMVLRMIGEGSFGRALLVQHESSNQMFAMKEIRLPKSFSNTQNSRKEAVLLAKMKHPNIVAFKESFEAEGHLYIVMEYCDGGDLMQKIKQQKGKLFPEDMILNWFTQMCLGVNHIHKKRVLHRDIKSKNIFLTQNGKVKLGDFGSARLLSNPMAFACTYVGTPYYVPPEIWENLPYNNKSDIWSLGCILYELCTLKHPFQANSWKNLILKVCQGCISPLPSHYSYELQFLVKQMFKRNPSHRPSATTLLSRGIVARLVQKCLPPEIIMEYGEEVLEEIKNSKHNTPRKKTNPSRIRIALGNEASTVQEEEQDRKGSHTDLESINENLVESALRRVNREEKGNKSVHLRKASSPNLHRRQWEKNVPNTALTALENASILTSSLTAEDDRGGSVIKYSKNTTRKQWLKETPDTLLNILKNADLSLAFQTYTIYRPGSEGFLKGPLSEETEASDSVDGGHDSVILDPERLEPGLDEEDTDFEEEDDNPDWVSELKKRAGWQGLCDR

[11] = molecular target: Activin receptor type-2B (Homo sapiens) (UniProt Q13705); test: Selectivity interaction (Ambit KINOMEscan and KiNATiv profiling in Jurkat cells) EUB0000090b ACVR2B; format: cell-based; conditions: at 1 µM
[12] = molecular target: TRAF2 and NCK-interacting protein kinase (Homo sapiens) (UniProt Q9UKE5); test: Selectivity interaction (KinomeScan (DiscoverX)) EUB0000045b TNIK
Sequence of TRAF2 and NCK-interacting protein kinase (Homo sapiens) (Q9UKE5 whole entry, looked up): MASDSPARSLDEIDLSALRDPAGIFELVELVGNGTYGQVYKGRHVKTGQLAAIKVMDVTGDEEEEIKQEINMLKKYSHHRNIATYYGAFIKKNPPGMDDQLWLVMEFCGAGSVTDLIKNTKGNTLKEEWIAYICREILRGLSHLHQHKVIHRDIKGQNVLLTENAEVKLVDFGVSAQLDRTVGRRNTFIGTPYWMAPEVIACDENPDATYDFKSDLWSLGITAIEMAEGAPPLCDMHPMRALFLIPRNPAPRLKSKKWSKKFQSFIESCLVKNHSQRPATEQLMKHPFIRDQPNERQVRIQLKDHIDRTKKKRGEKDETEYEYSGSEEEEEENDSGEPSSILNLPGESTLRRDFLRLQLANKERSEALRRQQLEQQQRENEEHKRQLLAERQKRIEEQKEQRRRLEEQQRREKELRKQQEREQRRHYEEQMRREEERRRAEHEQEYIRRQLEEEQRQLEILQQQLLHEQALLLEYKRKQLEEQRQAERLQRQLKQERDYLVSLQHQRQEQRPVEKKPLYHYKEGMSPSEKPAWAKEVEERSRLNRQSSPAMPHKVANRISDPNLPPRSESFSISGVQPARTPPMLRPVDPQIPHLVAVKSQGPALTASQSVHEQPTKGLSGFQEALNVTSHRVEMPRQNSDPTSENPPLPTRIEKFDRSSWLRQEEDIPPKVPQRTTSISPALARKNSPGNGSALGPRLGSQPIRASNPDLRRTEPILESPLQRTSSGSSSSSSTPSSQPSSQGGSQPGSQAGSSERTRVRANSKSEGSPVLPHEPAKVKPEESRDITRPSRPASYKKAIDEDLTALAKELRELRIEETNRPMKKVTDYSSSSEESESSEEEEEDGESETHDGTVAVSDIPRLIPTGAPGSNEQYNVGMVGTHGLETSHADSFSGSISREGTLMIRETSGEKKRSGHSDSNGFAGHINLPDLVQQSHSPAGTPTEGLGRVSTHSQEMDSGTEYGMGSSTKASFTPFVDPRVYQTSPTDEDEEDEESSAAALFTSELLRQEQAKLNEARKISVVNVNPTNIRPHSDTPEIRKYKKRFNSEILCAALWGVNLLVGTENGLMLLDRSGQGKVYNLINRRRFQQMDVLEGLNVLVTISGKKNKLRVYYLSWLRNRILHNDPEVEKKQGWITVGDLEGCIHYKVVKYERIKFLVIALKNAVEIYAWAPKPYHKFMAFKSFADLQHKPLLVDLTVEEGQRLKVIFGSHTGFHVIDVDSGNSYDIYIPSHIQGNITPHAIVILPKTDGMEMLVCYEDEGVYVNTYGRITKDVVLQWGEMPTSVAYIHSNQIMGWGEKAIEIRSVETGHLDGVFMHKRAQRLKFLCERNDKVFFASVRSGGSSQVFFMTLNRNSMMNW

[13] = molecular target: Serine/threonine-protein kinase 35 (Homo sapiens) (UniProt Q8TDR2); test: Selectivity interaction (KinomeScan (DiscoverX)) EUB0001619a STK35; conditions: at 1 µM
[14] = molecular target: Tyrosine-protein kinase Lyn (Homo sapiens, UniProt P07948); test: Selectivity interaction (ActivX KiNativ screen (ex vivo kinase selectivity in human PBMCs)) EUB0001619a LYN; format: cell-based; conditions: PBMC, at 1 µM
Sequence of Tyrosine-protein kinase Lyn (P07948 2-512 limits assumed): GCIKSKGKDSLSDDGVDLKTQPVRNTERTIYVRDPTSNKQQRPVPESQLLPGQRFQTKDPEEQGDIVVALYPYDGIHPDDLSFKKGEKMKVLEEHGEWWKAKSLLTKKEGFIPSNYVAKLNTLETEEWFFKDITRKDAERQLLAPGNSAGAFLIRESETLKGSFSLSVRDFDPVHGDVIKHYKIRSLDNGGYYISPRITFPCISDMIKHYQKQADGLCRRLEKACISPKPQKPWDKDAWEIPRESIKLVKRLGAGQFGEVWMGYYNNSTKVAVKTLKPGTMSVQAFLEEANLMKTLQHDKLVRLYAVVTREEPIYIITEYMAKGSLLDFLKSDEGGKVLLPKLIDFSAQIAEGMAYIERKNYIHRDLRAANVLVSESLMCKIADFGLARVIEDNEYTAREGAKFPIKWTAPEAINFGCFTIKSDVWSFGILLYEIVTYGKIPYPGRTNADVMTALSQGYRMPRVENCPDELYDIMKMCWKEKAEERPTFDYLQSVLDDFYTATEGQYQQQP

[15] = molecular target: Calcium/calmodulin-dependent protein kinase type 1G (Homo sapiens) (UniProt Q96NX5); test: Selectivity interaction (KinomeScan (DiscoverX)) EUB0000607a CAMK1G; conditions: at 10 µM
[16] = molecular target: Interleukin-1 receptor-associated kinase 1 (Homo sapiens) (UniProt P51617); test: Selectivity interaction (ProQinase) EUB0000171b IRAK1
Sequence of Interleukin-1 receptor-associated kinase 1 (Homo sapiens) (P51617 whole entry, looked up): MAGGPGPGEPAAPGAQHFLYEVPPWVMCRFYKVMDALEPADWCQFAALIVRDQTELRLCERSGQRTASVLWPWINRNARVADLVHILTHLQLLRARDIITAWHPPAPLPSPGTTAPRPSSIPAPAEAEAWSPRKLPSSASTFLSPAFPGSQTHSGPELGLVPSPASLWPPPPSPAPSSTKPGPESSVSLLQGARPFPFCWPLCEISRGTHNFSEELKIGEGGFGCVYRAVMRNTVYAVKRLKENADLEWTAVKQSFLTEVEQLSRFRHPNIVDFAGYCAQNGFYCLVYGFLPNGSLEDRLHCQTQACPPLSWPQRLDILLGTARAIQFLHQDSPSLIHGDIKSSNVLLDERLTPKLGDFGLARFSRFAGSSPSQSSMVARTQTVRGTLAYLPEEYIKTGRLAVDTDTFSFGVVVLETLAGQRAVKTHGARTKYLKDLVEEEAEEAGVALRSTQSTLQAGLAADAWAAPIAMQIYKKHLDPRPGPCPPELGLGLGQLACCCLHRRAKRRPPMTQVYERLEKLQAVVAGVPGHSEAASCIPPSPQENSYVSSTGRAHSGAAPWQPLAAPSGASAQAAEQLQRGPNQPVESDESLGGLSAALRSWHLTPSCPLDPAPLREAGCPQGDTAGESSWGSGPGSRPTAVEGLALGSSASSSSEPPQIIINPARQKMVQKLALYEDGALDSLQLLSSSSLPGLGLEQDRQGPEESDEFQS

COc1cc(Nc2nc(C)cc(-c3cnn4nc(OC)ccc34)n2)cc(C(F)(F)F)c1
% of control [1]: 85%

COc1cc(N(C)c2ccnc3ccc(C(F)(F)F)cc23)cc(OC)c1OC
% binding [2]: 73%

Nc1cnc(N2CCc3cc(S(=O)(=O)Nc4c(F)cc(Cl)cc4F)cc(N4CCCC4=O)c32)nc1 [TP-020n]
% of control [3]: 98%
% of control [4]: 83%

CC(C)(O)[C@H](F)CN1Cc2cc(NC(=O)c3cnn4cccnc34)c(N3CCOCC3)cc2C1=O
dTM [5]: 1.1 K

CCN(CC)CCCCNc1ncc2cc(-c3cc(OC)cc(OC)c3)c(NC(=O)NC(C)(C)C)nc2n1
% of control [6]: 12%

Cc1cc(CN)cc(C)c1-c1ncn(C)c1-c1cncn1C
% activity ([7]; at 1 µM): > 90%
% activity ([7]; at 10 µM): > 80%

CC[C@@H]1[C@H](F)C(=O)N[C@@H]1COc1nccc2cc(C(N)=O)c(OC)cc12 [ZIMLOVISERTIB]
% of inhibition [8]: -17.5%

CN(C)C/C=C/C(=O)Nc1ccc(C(=O)N2CCCC(Nc3ncc(Cl)c(-c4c[nH]c5ccccc45)n3)C2)cc1 (centres undefined)
% of control [9]: 38%
% of control [10]: 88%
% of control [11]: 77%

C=CC(=O)Nc1cc(-n2c(=O)ccc3cnc4ccc(-c5ccc(NS(C)(=O)=O)cc5)cc4c32)ccc1C
% of control ([12]; at 1 µM): 96%
% of control ([12]; at 10 µM): 100%

N#Cc1cccc(-c2c[nH]c3ncnc(N4CCOCC4)c23)c1
% of control [13]: 62%
% of inhibition [14]: 1%

CNC(=O)Nc1ccc(-c2nc(N3CC4CCC(C3)O4)c3cnn(C4CCC5(CC4)OCCO5)c3n2)cc1
% of control [15]: 100%

C=CC(=O)Nc1cccc(C(=O)Nc2ccc(Nc3cc(-c4[nH]c(SC)nc4C)ccn3)cc2)c1
% of control ([16]; at 1 µM): 50%
% of control ([16]; at 5 µM): 11%
